Calls of active or inactive are those of the source. No cut-off for these calls is given here.
test system: Ileum; assay: Antispasmodic activity in guinea pig ileum assessed as inhibition of histamine-induced tissue contraction at 10^-8 to 10^-5 M after 30 mins; format: functional, Cavia porcellus; settings: not given

SMILES	inhibition (INH)
C[C@H](CC[C@@]1(O)O[C@H]2C[C@H]3[C@@H]4CC=C5C[C@@H](O)C[C@@H](O[C@@H]6OC[C@@H](O)[C@H](O)[C@H]6O)[C@]5(C)[C@H]4CC[C@]3(C)[C@H]2[C@@H]1C)CO[C@@H]1O[C@H](C)[C@@H](O)[C@H](O)[C@@H]1O [TROPEOSIDE B1]	50%
C[C@H]1[C@H]2[C@H](C[C@H]3[C@@H]4C[C@@H](O)[C@H]5C[C@@H](O[C@@H]6O[C@H](CO)[C@H](O[C@@H]7O[C@H](CO)[C@@H](O)[C@H](O)[C@H]7O)[C@H](O)[C@H]6O)[C@H](O)C[C@]5(C)[C@H]4CC[C@]23C)O[C@]12CC[C@@H](CO)CO2 [ATROVIOLACEOSIDE]	0%
C[C@H](CC[C@@]1(O)O[C@H]2C[C@H]3[C@@H]4CC=C5C[C@@H](O)C[C@@H](O[C@@H]6O[C@H](CO)[C@H](O)[C@H](O)[C@H]6O)[C@]5(C)[C@H]4CC[C@]3(C)[C@H]2[C@@H]1C)CO[C@@H]1O[C@H](C)[C@@H](O)[C@H](O)[C@@H]1O [TROPEOSIDE A1]	50%
C[C@H](CC[C@]1(O)O[C@H]2C[C@H]3[C@@H]4CC=C5C[C@@H](O)C[C@@H](O[C@@H]6O[C@H](CO)[C@H](O)[C@H](O)[C@H]6O)[C@]5(C)[C@H]4CC[C@]3(C)[C@H]2[C@@H]1C)CO[C@@H]1O[C@H](C)[C@@H](O)[C@H](O)[C@@H]1O [TROPEOSIDE A2]	50%
C[C@H](CC[C@]1(O)O[C@H]2C[C@H]3[C@@H]4CC=C5C[C@@H](O)C[C@@H](O[C@@H]6OC[C@@H](O)[C@H](O)[C@H]6O)[C@]5(C)[C@H]4CC[C@]3(C)[C@H]2[C@@H]1C)CO[C@@H]1O[C@H](C)[C@@H](O)[C@H](O)[C@@H]1O [TROPEOSIDE B2]	50%

same assay, conditions: Cavia porcellus

SMILES	Activity
C[C@H]1[C@H]2[C@H](C[C@H]3[C@@H]4C[C@@H](O)[C@H]5C[C@@H](O)[C@H](O)C[C@]5(C)[C@H]4CC[C@]23C)O[C@]12CCC(CO)CO2 (single isomer, unassigned)	inactive
